Assays:
[1] = system: pFGFR4 in MDA-MB-453 cells; experiment: FGFR4 signaling, pFGFR4 (MDA); Western blot (Method A), MSD (Method B), ELISA (Method C); assay type: cell-based; conditions: Homo sapiens, Method B (MSD) for signaling EC50 determination
Procedure: The MDA-MB-453 protein concentrations were determined by a BCA Assay (Pierce, Rockford, Ill.). A sample of 50-100 μg of each lysate was separated by a 4-12% gradient (SDS-PAGE (Invitrogen)), transferred to a nitrocellulose membrane (Biorad, Hercules, Calif.), and probed with specific antibodies. Phospho-protein signals were quantitated using Odyssey Infrared Imaging (Li-Cor Biosciences).
To assess phospho-FGFR signaling, the blots were probed with anti-Phospho-FGFR (Y653/Y654) and total anti-FGFR antibodies. The phospho-FGFR signal was normalized to total FGFR expression for each sample.

[2] = system: pFGFR4 in Huh7 cells; experiment: FGFR4 signaling, pFGFR4 (Huh); MSD (Method B); assay type: cell-based; conditions: Homo sapiens, Huh-7; Huh7 cells; read-out: Signaling EC50 (nM) pFGFR4 (Huh)

SMILES | EC50 [2] | EC50 ([1]; MDA-MB-453 cells) | EC50 ([1]; MDA-MB-453, MDA-MB-453 cells)
C=CC(=O)NC1CCCCC1Nc1ncc2c(n1)N(C)C(=O)N(c1cc(OC)cc(OC)c1Cl)C2 (racemic) [Compound I-76] | > 1000 nM |  | 501 to 999 nM
C=CC(=O)NC1CCCCC1Nc1ncc2c(n1)N(CC(F)F)C(=O)N(c1c(Cl)c(OC)cc(OC)c1Cl)C2 (racemic) [Compound I-105] | 101 to 500 nM |  | 101 to 500 nM
C=CC(=O)NC1CCCCC1Nc1ncc2c(n1)N(CCF)C(=O)N(c1c(Cl)c(OC)cc(OC)c1Cl)C2 (racemic) [Compound I-106] | 101 to 500 nM |  | 101 to 500 nM
C=CC(=O)NC1CCCCC1Nc1ncc2c(n1)N(CC(F)F)C(=O)N(c1cc(OC)cc(OC)c1Cl)C2 (racemic) [Compound I-107] | > 1000 nM |  | 501 to 999 nM
C=CC(=O)NC1CCCCC1Nc1ncc2c(n1)N(CCF)C(=O)N(c1cc(OC)cc(OC)c1Cl)C2 (racemic) [Compound I-111] | > 1000 nM |  | 501 to 999 nM
C=CC(=O)NC1CC=CCC1Nc1ncc2c(n1)N(C)C(=O)N(c1c(Cl)c(OC)cc(OC)c1Cl)C2 (racemic) [Compound I-113] | 101 to 500 nM | 101 to 500 nM | 
C=CC(=O)NC1CN(C)CC1Nc1ncc2c(n1)N(C)C(=O)N(c1c(Cl)c(OC)cc(OC)c1Cl)C2 (racemic) [Compound I-138] | 101 to 500 nM |  | 101 to 500 nM
C=CC(=O)NC1CN(C(C)=O)CC1Nc1ncc2c(n1)N(C)C(=O)N(c1c(Cl)c(OC)cc(OC)c1Cl)C2 (racemic) [Compound I-139] | 101 to 500 nM | 101 to 500 nM | 
C=CC(=O)Nc1cc(N2CCN(CCOC)CC2)ccc1Nc1ncc2c(n1)N(Cc1cccc(NC(=O)CC)c1)C(=O)N(c1cc(OC)cc(OC)c1)C2 [Compound I-9] | 101 to 500 nM | < 100 nM | 
C=CC(=O)Nc1cc(N(C)CCOC)ccc1Nc1ncc2c(n1)N(Cc1ccccc1)C(=O)N(c1cc(OC)cc(OC)c1)C2 [Compound I-13] | 101 to 500 nM |  | 101 to 500 nM
C=CC(=O)NC1CCCCC1Nc1ncc2c(n1)N(CC(F)F)C(=O)N(c1c(F)c(OC)cc(OC)c1F)C2 (stereo not shown) [Compound I-115] | 101 to 500 nM | 101 to 500 nM | 
C=CC(=O)Nc1nn(C)cc1Nc1ncc2c(n1)N(C)C(=O)N(c1c(Cl)c(OC)cc(OC)c1Cl)C2 [Compound I-117] | < 100 nM | < 100 nM | 
C=CC(=O)Nc1ccccc1Nc1ncc2c(n1)N(Cc1cn[nH]c1)C(=O)N(c1c(Cl)c(OC)cc(OC)c1Cl)C2 [Compound I-124] | < 100 nM | < 100 nM | 
C=CC(=O)Nc1ccccc1Nc1ncc2c(n1)NC(=O)N(c1cc(OC)cc(OC)c1)C2 [Compound I-125] | > 1000 nM |  | 501 to 999 nM
C=CC(=O)NC1COCC1Nc1ncc2c(n1)N(C)C(=O)N(c1c(Cl)c(OC)cc(OC)c1Cl)C2 (stereo not shown) [Compound I-126] | < 100 nM |  | < 100 nM
C=CC(=O)NC1CCCCC1Nc1ncc2c(n1)N(Cc1ccn(C)c(=O)c1)C(=O)N(c1c(Cl)c(OC)cc(OC)c1Cl)C2 (stereo not shown) [Compound I-132] | 101 to 500 nM | 101 to 500 nM | 
C=CC(=O)NC1CCCCC1Nc1ncc2c(n1)N(Cc1ccnc(N)c1)C(=O)N(c1c(Cl)c(OC)cc(OC)c1Cl)C2 (stereo not shown) [Compound I-133] | < 100 nM | < 100 nM | 
C=CC(=O)NC1CCCCC1Nc1ncc2c(n1)N(Cc1csc(C)n1)C(=O)N(c1c(Cl)c(OC)cc(OC)c1Cl)C2 (stereo not shown) [Compound I-137] | 101 to 500 nM | 101 to 500 nM | 
C=CC(=O)N[C@H]1COCC[C@H]1Nc1ncc2c(n1)N(C)C(=O)N(c1c(Cl)c(OC)cc(OC)c1Cl)C2 [Compound I-140] | 101 to 500 nM | 101 to 500 nM | 
C=CC(=O)N[C@H]1CCCC[C@H]1Nc1ncc2c(n1)N(C)C(=O)N(c1c(F)c(OC)cc(OC)c1F)C2 [Compound I-143] | 101 to 500 nM | 101 to 500 nM | 
C=CC(=O)Nc1cc(-c2nnnn2C)ccc1Nc1ncc2c(n1)N(C)C(=O)N(c1c(Cl)c(OC)cc(OC)c1Cl)C2 [Compound I-153] | < 100 nM | < 100 nM | 
C=CC(=O)N[C@@H]1COC[C@@H]1Nc1ncc2c(n1)N(C)C(=O)N(c1c(Cl)c(OC)cc(OC)c1Cl)C2 [Compound I-185] | > 1000 nM |  | 101 to 500 nM
C=CC(=O)N[C@H]1COC[C@H]1Nc1ncc2c(n1)N(C)C(=O)N(c1c(Cl)c(OC)cc(OC)c1Cl)C2 [Compound I-186] | < 100 nM |  | < 100 nM

Further lines, with some results ahead:

EC50 [2] | EC50 ([1]; MDA-MB-453 cells) | SMILES | EC50 ([1]; MDA-MB-453, MDA-MB-453 cells)
101 to 500 nM | 101 to 500 nM | C=CC(=O)Nc1ccccc1Nc1ncc2c(n1)N(C)C(=O)N(c1cc(OC)cc(OC)c1)C2 [Compound I-5] | 
< 100 nM | < 100 nM | C=CC(=O)Nc1cc(N(C)CCOC)ccc1Nc1ncc2c(n1)N(C)C(=O)N(c1cc(OC)cc(OC)c1)C2 [Compound I-21] | 
101 to 500 nM | < 100 nM | C=CC(=O)Nc1ccccc1Nc1ncc2c(n1)N(Cc1ccc(F)cc1)C(=O)N(c1c(Cl)c(OC)cc(OC)c1Cl)C2 [Compound I-25] | 
< 100 nM | < 100 nM | C=CC(=O)Nc1ccccc1Nc1ncc2c(n1)N(Cc1cccc(N)c1)C(=O)N(c1c(Cl)c(OC)cc(OC)c1Cl)C2 [Compound I-26] | 
> 1000 nM | 101 to 500 nM | C=CC(=O)Nc1ccccc1Nc1ncc2c(n1)N(CC(O)CO)C(=O)N(c1cc(OC)cc(OC)c1)C2 (stereo not shown) [Compound I-33] | 
101 to 500 nM | 101 to 500 nM | C=CC(=O)Nc1ccccc1Nc1ncc2c(n1)N(C1CCCN(C(=O)OC(C)(C)C)C1)C(=O)N(c1cc(OC)cc(OC)c1)C2 (stereo not shown) [Compound I-36] | 
101 to 500 nM | 101 to 500 nM | C=CC(=O)Nc1cc(C)ccc1Nc1ncc2c(n1)N(C)C(=O)N(c1cc(OC)cc(OC)c1)C2 [Compound I-41] | 
< 100 nM | 101 to 500 nM | C=CC(=O)Nc1cc(C(F)(F)F)ccc1Nc1ncc2c(n1)N(C)C(=O)N(c1cc(OC)cc(OC)c1)C2 [Compound I-42] | 
> 1000 nM | 501 to 999 nM | C=CC(=O)Nc1ccccc1Nc1ncc2c(n1)N(C1CCCNC1)C(=O)N(c1cc(OC)cc(OC)c1)C2 (stereo not shown) [Compound I-43] | 
< 100 nM | < 100 nM | C=CC(=O)Nc1ccccc1Nc1ncc2c(n1)N(Cc1cccnc1)C(=O)N(c1cc(OC)cc(OC)c1)C2 [Compound I-44] | 
101 to 500 nM | 101 to 500 nM | C=CC(=O)Nc1ccccc1Nc1ncc2c(n1)N(CC#N)C(=O)N(c1cc(OC)cc(OC)c1)C2 [Compound I-48] | 
101 to 500 nM | 101 to 500 nM | C=CC(=O)Nc1ccc(C(F)(F)F)cc1Nc1ncc2c(n1)N(C)C(=O)N(c1cc(OC)cc(OC)c1)C2 [Compound I-50] | 
101 to 500 nM | 101 to 500 nM | C=CC(=O)Nc1ccccc1Nc1ncc2c(n1)N(CCOC)C(=O)N(c1cc(OC)cc(OC)c1)C2 [Compound I-59] | 
101 to 500 nM | 101 to 500 nM | C=CC(=O)Nc1ccccc1Nc1ncc2c(n1)N(Cc1cscn1)C(=O)N(c1cc(OC)cc(OC)c1)C2 [Compound I-64] | 
101 to 500 nM | 101 to 500 nM | C=CC(=O)Nc1ccccc1Nc1ncc2c(n1)N(C)C(=O)N(c1c(Cl)cccc1Cl)C2 [Compound I-83] | 
< 100 nM | < 100 nM | C=CC(=O)Nc1ccccc1Nc1ncc2c(n1)N(Cc1ccnc(N)c1)C(=O)N(c1cc(OC)cc(OC)c1)C2 [Compound I-87] | 
101 to 500 nM | 101 to 500 nM | C=CC(=O)Nc1ccccc1Nc1ncc2c(n1)N(C1COC1)C(=O)N(c1cc(OC)cc(OC)c1)C2 [Compound I-88] | 
101 to 500 nM | 101 to 500 nM | C=CC(=O)Nc1ccccc1Nc1ncc2c(n1)N(Cc1cccc(C(N)=O)c1)C(=O)N(c1cc(OC)cc(OC)c1)C2 [Compound I-97] | 
< 100 nM | < 100 nM | C=CC(=O)Nc1ccccc1Nc1ncc2c(n1)N(CC1CC1)C(=O)N(c1cc(OC)cc(OC)c1)C2 [Compound I-98] | 
101 to 500 nM | 101 to 500 nM | C=CC(=O)Nc1ccccc1Nc1ncc2c(n1)N(CC(F)F)C(=O)N(c1cc(OC)cc(OC)c1)C2 [Compound I-99] | 
< 100 nM | < 100 nM | C=CC(=O)Nc1ccccc1Nc1ncc2c(n1)N(CC1CC1)C(=O)N(c1cc(OC)cc(OC)c1Cl)C2 [Compound I-100] | 
< 100 nM | 101 to 500 nM | C=CC(=O)Nc1ccccc1Nc1ncc2c(n1)N(CCF)C(=O)N(c1cc(OC)cc(OC)c1)C2 [Compound I-102] | 
< 100 nM | < 100 nM | C=CC(=O)Nc1ccccc1Nc1ncc2c(n1)N(CC(F)F)C(=O)N(c1cc(OC)cc(OC)c1Cl)C2 [Compound I-104] | 
< 100 nM | < 100 nM | C=CC(=O)Nc1ccccc1Nc1ncc2c(n1)N(CCF)C(=O)N(c1cc(OC)cc(OC)c1Cl)C2 [Compound I-110] | 
< 100 nM | < 100 nM | C=CC(=O)Nc1ccccc1Nc1ncc2c(n1)N(CC(F)F)C(=O)N(c1c(F)c(OC)cc(OC)c1F)C2 [Compound I-116] | 
< 100 nM | < 100 nM | C=CC(=O)Nc1ccccc1Nc1ncc2c(n1)N(Cc1cn[nH]c1)C(=O)N(c1cc(OC)cc(OC)c1)C2 [Compound I-121] | 
< 100 nM | < 100 nM | C=CC(=O)Nc1ccccc1Nc1ncc2c(n1)N(C)C(=O)N(c1c(F)c(OC)cc(OC)c1F)C2 [Compound I-131] | 
101 to 500 nM | 101 to 500 nM | C=CC(=O)Nc1cc(-c2nnn(C)n2)ccc1Nc1ncc2c(n1)N(C)C(=O)N(c1cc(OC)cc(OC)c1)C2 [Compound I-146] | 
> 1000 nM | 501 to 999 nM | C=CC(=O)Nc1cc(C(=O)NC2CCN(C)CC2)ccc1Nc1ncc2c(n1)N(C)C(=O)N(c1cc(OC)cc(OC)c1)C2 [Compound I-151] | 
> 1000 nM | 101 to 500 nM | C=CC(=O)Nc1ccccc1Nc1ncc2cc(-c3cc(OC)cc(OC)c3)c(N)nc2n1 [Compound I-155] | 

Source: patent US10774052B2, “Heteroaryl compounds and uses thereof” (Celgene CAR LLC, priority 2013, dated 2020)
